Results as given in the CheMixHub viscosity set.
± gives the uncertainty stated by the source.

Assay: xn = mol fraction of the nth substance listed
Conditions: 101.3 kPa

N[C@@H](Cc1c[nH]cn1)C(=O)[O-].[K+] + O
viscosity [mPa·s]
Conditions	293.15 K	298.15 K	303.15 K	308.15 K	313.15 K	318.15 K	323.15 K
x1 = 0.00475	1.09 ± 0.11	0.9617 ± 0.097	0.8629 ± 0.087	0.7803 ± 0.078	0.7087 ± 0.071	0.648 ± 0.065	0.5955 ± 0.06
x1 = 0.00983	1.242 ± 0.12	1.093 ± 0.11	0.9797 ± 0.098	0.8847 ± 0.089	0.8025 ± 0.081	0.7344 ± 0.074	0.6734 ± 0.068
x1 = 0.0145	1.421 ± 0.14	1.252 ± 0.13	1.119 ± 0.11	1.007 ± 0.1	0.9131 ± 0.092	0.8323 ± 0.083	0.7621 ± 0.076
x1 = 0.02037	1.662 ± 0.17	1.457 ± 0.15	1.299 ± 0.13	1.167 ± 0.12	1.053 ± 0.11	0.9568 ± 0.096	0.8736 ± 0.088
x1 = 0.03224	2.28 ± 0.23	2.002 ± 0.2	1.768 ± 0.18	1.578 ± 0.16	1.417 ± 0.14	1.279 ± 0.13	1.164 ± 0.12
x1 = 0.04399	3.048 ± 0.31	2.632 ± 0.26	2.315 ± 0.23	2.049 ± 0.21	1.828 ± 0.18	1.641 ± 0.16	1.484 ± 0.15

O=c1ccn([C@@H]2O[C@H](CO)C(O)C2O)c(=O)[nH]1 (stereo not given in full) + O
viscosity [mPa·s]
Conditions	293.15 K	298.15 K	303.15 K	308.15 K	313.15 K	318.15 K
x1 = 0.0001846	–	0.895 ± 0.025	–	0.723 ± 0.024	–	0.599 ± 0.024
x1 = 0.0002557	–	0.897 ± 0.025	–	0.724 ± 0.024	–	0.601 ± 0.024
x1 = 0.00027	1.006 ± 0.041	0.895 ± 0.041	0.807 ± 0.041	0.738 ± 0.04	0.623 ± 0.04	–
x1 = 0.000318	–	0.898 ± 0.025	–	0.726 ± 0.024	–	0.602 ± 0.024
x1 = 0.000355	1.008 ± 0.041	0.897 ± 0.041	0.809 ± 0.041	0.74 ± 0.04	0.625 ± 0.04	–
x1 = 0.0003955	–	0.9 ± 0.025	–	0.727 ± 0.024	–	0.603 ± 0.024
x1 = 0.000448	1.01 ± 0.041	0.899 ± 0.041	0.811 ± 0.041	0.742 ± 0.04	0.627 ± 0.04	–
x1 = 0.0005076	–	0.902 ± 0.025	–	0.729 ± 0.024	–	0.605 ± 0.024
x1 = 0.000533	1.012 ± 0.041	0.901 ± 0.041	0.813 ± 0.041	0.744 ± 0.04	0.628 ± 0.04	–
x1 = 0.0005591	–	0.904 ± 0.025	–	0.731 ± 0.025	–	0.606 ± 0.024
x1 = 0.00063	1.014 ± 0.041	0.903 ± 0.041	0.815 ± 0.041	0.746 ± 0.04	0.63 ± 0.04	–
x1 = 0.00072	1.016 ± 0.041	0.905 ± 0.041	0.817 ± 0.041	0.748 ± 0.041	0.632 ± 0.04	–
